Experimental data published in patent US8557849B2 (priority 2008, dated 2013).

assay: Measurement of logP values by HPLC on reversed phase columns (EEC directive 79/831 Annex V.A8); format: physicochemical; conditions: method [a]: pH 2.3 with 0.1% phosphoric acid and acetonitrile as eluent
Protocol: Measurement of logP values was performed according EEC directive 79/831 Annex V.A8 by HPLC (High Performance Liquid Chromatography) on reversed phase columns with the following methods: • ^[a] Measurement was done at pH 2.3 with 0.1% phosphoric acid and acetonitrile as eluent. • ^[b] measurement of LC-MS was done at pH 2.7 with 0.1% formic acid in water and with acetonitrile (contains 0.1% formic acid) as eluent with a linear gradient from 10% acetonitrile to 95% acetonitrile. • ^[c] Measurement with LC-MS was done at pH 7.8 with 0.001 molar ammonium hydrogen carbonate solution in water as eluent with a linear gradient from 10% acetonitrile to 95% acetonitrile.

| SMILES | log p |
| --- | --- |
| CC(ON=C(c1ccccc1)c1nnnn1C)c1csc(C#CCC2CCCCC2)n1 (stereo not shown) [Example 5] | 5.65^[a] |
| Cn1nnnc1C(=NOCCc1csc(C#CC2CC2)n1)c1ccccc1 [Example 8] | 3.69^[a] |
| CCCCC#Cc1nc(C(C)ON=C(c2ccccc2)c2nnnn2C)cs1 (stereo not shown) [Example 6] | 4.73^[a] |
| CCCCC#Cc1nc(CCON=C(c2ccccc2)c2nnnn2C)cs1 [Example 9] | 4.46^[a] |
| CC(ON=C(c1ccccc1)c1nnnn1C)c1csc(C#CCCCc2ccccc2)n1 (stereo not shown) [Example 3] | 5.08^[a] |
| CC(ON=C(c1ccccc1)c1nnnn1C)c1csc(C#CCC2CCCC2)n1 (stereo not shown) [Example 4] | 5.23^[a] |
| Cn1nnnc1C(=NOCCc1csc(Br)n1)c1ccccc1 [Example 7] | 3.25^[a] |

same assay, conditions: method [b]: LC-MS at pH 2.7 with 0.1% formic acid in water and acetonitrile, linear gradient 10% to 95% acetonitrile

| SMILES | log p |
| --- | --- |
| CCCCCC(=O)Nc1cccc(C(C)O/N=C(\c2ccccc2)c2nnnn2C)n1 (stereo not shown) [Example 14] | 3.83^[b] |
| CC(ON=C(c1ccccc1)c1nnnn1C)c1ccccn1 (stereo not shown) [Example 11] | 2.19^[b] |
| CC(ON=C(c1ccccc1)c1nnnn1C)c1cccc(N)n1 (stereo not shown) [Example 12] | 1.34^[b] |
| Cn1nnnc1C(=NOC(=O)c1ccccn1)c1ccccc1 [Example 10] | 2.13^[b] |
| CCCCCC(=O)Nc1cccc(C(C)O/N=C(/c2ccccc2)c2nnnn2C)n1 (stereo not shown) [Example 17] | 3.96^[b] |
| CCCCCOC(=O)Nc1cccc(C(C)O/N=C(\c2ccccc2)c2nnnn2C)n1 (stereo not shown) [Example 15] | 4.41^[b] |
| CCCCCOC(=O)Nc1cccc(C(C)O/N=C(/c2ccccc2)c2nnnn2C)n1 (stereo not shown) [Example 18] | 4.54^[b] |
| CC(C)CC(=O)Nc1cccc(C(C)O/N=C(/c2ccccc2)c2nnnn2C)n1 (stereo not shown) [Example 13] | 3.53^[b] |

same assay, conditions: reversed phase HPLC column, pH 2.7; HCOOH; given in preparation examples; read-out: logP(HCOOH)

| SMILES | chromatographic logP |
| --- | --- |
| CC(O)c1csc(N)n1 (stereo not shown) [1-(2-amino-1,3-thiazol-4-yl)ethanol] | -0.16 |
| CC(Br)c1csc(Br)n1 (stereo not shown) [2-bromo-4-(1-bromoethyl)-1,3-thiazole] | 2.61 |
| CC(O)c1csc(Br)n1 (stereo not shown) [1-(2-bromo-1,3-thiazol-4-yl)ethanol] | 1.1 |
| CC(C)(C)C(=O)Nc1cccc(Br)n1 [N-(6-bromopyridin-2-yl)-2,2-dimethylpropanamide] | 2.84 |
| CC(Br)c1cccc(NC(=O)C(C)(C)C)n1 (stereo not shown) [N-[6-(1-bromoethyl)pyridin-2-yl]-2,2-dimethylpropanamide] | 3.05 |
| CC(O)c1cccc(NC(=O)C(C)(C)C)n1 (stereo not shown) [N-[6-(1-hydroxyethyl)pyridin-2-yl]-2,2-dimethylpropanamide] | 1.08 |
| CC(ON=C(c1ccccc1)c1nnnn1C)c1cccc(NC(=O)OC(C)(C)C)n1 (stereo not shown) [Example 20, tert-butyl {6-[1-({[(1-methyl-1H-tetrazol-5-yl)(phenyl)methylene]amino}oxy)ethyl]pyridin-2-yl}carbamate] | 4.09 |
| CC(ON=C(c1ccccc1)c1nnnn1C)c1cccc(N)n1 (stereo not shown) [Example 16, 6-[1-({[(1-methyl-1H-tetrazol-5-yl)(phenyl)methylene]amino}oxy)ethyl]pyridin-2-amine] | 1.21 |
| CC(ON=C(c1ccccc1)c1nnnn1C)c1csc(Br)n1 (stereo not shown) [Example 1] | 3.44 |
| CC(ON=C(c1ccccc1)c1nnnn1C)c1csc(C#CC2CC2)n1 (stereo not shown) [Example 2, N-{1-[2-(cyclopropylethynyl)-1,3-thiazol-4-yl]ethoxy}-1-(1-methyl-1H-tetrazol-5-yl)-1-phenylmethanimine] | 3.89 |
| CC(ON=C(c1ccccc1)c1nnnn1C)c1cccc(NC(=O)C(C)(C)C)n1 (stereo not shown) [Example 19, 2,2-dimethyl-N-{6-[1-({[(1-methyl-1H-tetrazol-5-yl)(phenyl)methylene]amino}oxy)ethyl]pyridin-2-yl}propanamide] | 3.64 |

same assay, conditions: reversed phase HPLC column; method [a]: pH 2.3 with 0.1% phosphoric acid and acetonitrile as eluent; read-out: log p

| SMILES | chromatographic logP |
| --- | --- |
| CC(ON=C(c1ccccc1)c1nnnn1C)c1csc(Br)n1 (stereo not shown) [Example 1] | 3.44 |
| CC(ON=C(c1ccccc1)c1nnnn1C)c1csc(C#CC2CC2)n1 (stereo not shown) [Example 2, N-{1-[2-(cyclopropylethynyl)-1,3-thiazol-4-yl]ethoxy}-1-(1-methyl-1H-tetrazol-5-yl)-1-phenylmethanimine] | 3.89 |
